Several values for one entry are separate records, joined by “and”; a condition that tells them apart may be missing. Identical values can stand only once.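 Five compound concentrations were applied to cells in 96-well plates for 48 hours; endpoints were derived by simple linear interpolation of the resulting dose-response curve. Definition used: TGI = concentration required for complete inhibition of growth.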
Assays:
Assay in all cases: NCI anticancer screen, dose series, 48 h
M19-MEL melanoma = test system: M19-MEL melanoma
RPMI-8226 leukemia = test system: RPMI-8226 leukemia
K-562 leukemia = test system: K-562 leukemia
NCI-H226 lung = test system: NCI-H226 lung
IGROV1 ovarian = test system: IGROV1 ovarian
KM20L2 colon = test system: KM20L2 colon
UACC-257 melanoma = test system: UACC-257 melanoma
CAKI-1 renal = test system: CAKI-1 renal
UO-31 renal = test system: UO-31 renal
HL-60(TB) leukemia = test system: HL-60(TB) leukemia
HCT-116 colon = test system: HCT-116 colon
EKVX NSCLC = test system: EKVX NSCLC
SR leukemia = test system: SR leukemia
NCI-H23 lung = test system: NCI-H23 lung
OVCAR-5 ovarian = test system: OVCAR-5 ovarian
DMS 114 small cell lung = test system: DMS 114 small cell lung
RXF-631 renal = test system: RXF-631 renal
LOX IMVI melanoma = test system: LOX IMVI melanoma
A549 NSCLC = test system: A549 NSCLC
SF-295 CNS = test system: SF-295 CNS
786-0 renal = test system: 786-0 renal
SNB-75 CNS = test system: SNB-75 CNS
NCI-H460 lung = test system: NCI-H460 lung
ACHN renal = test system: ACHN renal
SN12C renal = test system: SN12C renal
COLO 205 colon = test system: COLO 205 colon
SF-268 CNS = test system: SF-268 CNS
LXFL 529 NSCLC = test system: LXFL 529 NSCLC
HOP-62 NSCLC = test system: HOP-62 NSCLC
SNB-19 CNS = test system: SNB-19 CNS
HOP-18 NSCLC = test system: HOP-18 NSCLC
TK-10 renal = test system: TK-10 renal
HT29 colon = test system: HT29 colon
HOP-92 NSCLC = test system: HOP-92 NSCLC
SW-620 colon = test system: SW-620 colon
XF 498 CNS = test system: XF 498 CNS
OVCAR-8 ovarian = test system: OVCAR-8 ovarian
OVCAR-3 ovarian = test system: OVCAR-3 ovarian
U251 CNS = test system: U251 CNS
NCI-H522 lung = test system: NCI-H522 lung
UACC-62 melanoma = test system: UACC-62 melanoma
OVCAR-4 ovarian = test system: OVCAR-4 ovarian
RXF 393 renal = test system: RXF 393 renal
HCC-2998 colon = test system: HCC-2998 colon
KM12 colon = test system: KM12 colon
SK-MEL-5 melanoma = test system: SK-MEL-5 melanoma
HCT-15 colon = test system: HCT-15 colon
DLD-1 colon = test system: DLD-1 colon
MOLT-4 leukemia = test system: MOLT-4 leukemia
DMS 273 small cell lung = test system: DMS 273 small cell lung
SF-539 CNS = test system: SF-539 CNS
SK-MEL-28 melanoma = test system: SK-MEL-28 melanoma
SNB-78 CNS = test system: SNB-78 CNS
MALME-3M melanoma = test system: MALME-3M melanoma
M14 melanoma = test system: M14 melanoma
A498 renal = test system: A498 renal
SK-OV-3 ovarian = test system: SK-OV-3 ovarian
CCRF-CEM leukemia = test system: CCRF-CEM leukemia
SK-MEL-2 melanoma = test system: SK-MEL-2 melanoma

O=S(=O)(O)SC/C=C\CSS(=O)(=O)O
TGI (M19-MEL melanoma): > 100 µM | TGI (RPMI-8226 leukemia): > 100 µM | TGI (K-562 leukemia): > 100 µM | TGI (NCI-H226 lung): > 100 µM | TGI (IGROV1 ovarian): > 100 µM | TGI (KM20L2 colon): > 100 µM | TGI (UACC-257 melanoma): > 100 µM | TGI (CAKI-1 renal): > 100 µM | TGI (UO-31 renal): > 100 µM | TGI (HL-60(TB) leukemia): > 100 µM | TGI (HCT-116 colon): > 100 µM | TGI (EKVX NSCLC): > 100 µM | TGI (SR leukemia): > 100 µM | TGI (NCI-H23 lung): > 100 µM | TGI (OVCAR-5 ovarian): > 100 µM | TGI (DMS 114 small cell lung): > 100 µM | TGI (RXF-631 renal): > 100 µM | TGI (LOX IMVI melanoma): > 100 µM | TGI (A549 NSCLC): > 100 µM | TGI (SF-295 CNS): > 100 µM | TGI (786-0 renal): > 100 µM | TGI (SNB-75 CNS): > 100 µM | TGI (NCI-H460 lung): > 100 µM | TGI (ACHN renal): > 100 µM | TGI (SN12C renal): > 100 µM | TGI (COLO 205 colon): > 100 µM | TGI (SF-268 CNS): > 100 µM | TGI (LXFL 529 NSCLC): > 100 µM | TGI (HOP-62 NSCLC): > 100 µM | TGI (SNB-19 CNS): > 100 µM | TGI (HOP-18 NSCLC): > 100 µM | TGI (TK-10 renal): > 100 µM | TGI (HT29 colon): > 100 µM | TGI (HOP-92 NSCLC): > 100 µM | TGI (SW-620 colon): > 100 µM | TGI (XF 498 CNS): > 100 µM | TGI (OVCAR-8 ovarian): > 100 µM | TGI (OVCAR-3 ovarian): > 100 µM | TGI (U251 CNS): > 100 µM | TGI (NCI-H522 lung): > 100 µM | TGI (UACC-62 melanoma): > 100 µM | TGI (OVCAR-4 ovarian): > 100 µM | TGI (RXF 393 renal): > 100 µM | TGI (HCC-2998 colon): > 100 µM | TGI (KM12 colon): > 100 µM and 61.2 µM | TGI (SK-MEL-5 melanoma): > 100 µM | TGI (HCT-15 colon): > 100 µM | TGI (DLD-1 colon): > 100 µM | TGI (MOLT-4 leukemia): > 100 µM | TGI (DMS 273 small cell lung): > 100 µM | TGI (SF-539 CNS): > 100 µM | TGI (SK-MEL-28 melanoma): > 100 µM | TGI (SNB-78 CNS): > 100 µM | TGI (MALME-3M melanoma): > 100 µM | TGI (M14 melanoma): > 100 µM | TGI (A498 renal): > 100 µM | TGI (SK-OV-3 ovarian): > 100 µM

Cc1cc(NS(=O)(=O)c2ccc(NC(=O)c3cccn4c(=O)c5ccccc5nc34)cc2)no1
TGI (M19-MEL melanoma): > 100 µM | TGI (RPMI-8226 leukemia): > 100 µM | TGI (K-562 leukemia): > 100 µM | TGI (NCI-H226 lung): > 100 µM | TGI (IGROV1 ovarian): > 100 µM | TGI (KM20L2 colon): > 100 µM | TGI (UACC-257 melanoma): > 100 µM | TGI (CAKI-1 renal): > 100 µM | TGI (UO-31 renal): > 100 µM | TGI (HL-60(TB) leukemia): > 100 µM | TGI (HCT-116 colon): > 100 µM | TGI (EKVX NSCLC): > 100 µM | TGI (SR leukemia): > 100 µM | TGI (CCRF-CEM leukemia): > 100 µM | TGI (NCI-H23 lung): > 100 µM | TGI (DMS 114 small cell lung): > 100 µM | TGI (RXF-631 renal): > 100 µM | TGI (LOX IMVI melanoma): > 100 µM | TGI (A549 NSCLC): > 100 µM | TGI (SF-295 CNS): > 100 µM | TGI (786-0 renal): > 100 µM | TGI (SNB-75 CNS): > 100 µM | TGI (NCI-H460 lung): > 100 µM | TGI (ACHN renal): > 100 µM | TGI (SN12C renal): > 100 µM | TGI (COLO 205 colon): > 100 µM | TGI (SF-268 CNS): > 100 µM | TGI (LXFL 529 NSCLC): > 100 µM | TGI (HOP-62 NSCLC): > 100 µM | TGI (SNB-19 CNS): > 100 µM | TGI (HOP-18 NSCLC): > 100 µM | TGI (TK-10 renal): > 100 µM | TGI (HT29 colon): > 100 µM | TGI (HOP-92 NSCLC): > 100 µM | TGI (SW-620 colon): > 100 µM | TGI (XF 498 CNS): > 100 µM | TGI (OVCAR-8 ovarian): > 100 µM | TGI (OVCAR-3 ovarian): > 100 µM | TGI (U251 CNS): > 100 µM | TGI (NCI-H522 lung): > 100 µM | TGI (UACC-62 melanoma): > 100 µM | TGI (OVCAR-4 ovarian): > 100 µM | TGI (RXF 393 renal): > 100 µM | TGI (HCC-2998 colon): > 100 µM | TGI (KM12 colon): > 100 µM | TGI (SK-MEL-5 melanoma): > 100 µM | TGI (DLD-1 colon): > 100 µM | TGI (MOLT-4 leukemia): > 100 µM | TGI (DMS 273 small cell lung): > 100 µM | TGI (SF-539 CNS): > 100 µM | TGI (SK-MEL-28 melanoma): > 100 µM | TGI (SNB-78 CNS): > 100 µM | TGI (MALME-3M melanoma): > 100 µM | TGI (M14 melanoma): > 100 µM | TGI (A498 renal): > 100 µM | TGI (SK-OV-3 ovarian): > 100 µM

O=C(CC1C(=O)Nc2ccccc2S1=O)Nc1ccccc1 (centres undefined)
TGI (M19-MEL melanoma): > 100 µM | TGI (NCI-H226 lung): > 100 µM | TGI (IGROV1 ovarian): > 100 µM | TGI (KM20L2 colon): > 100 µM | TGI (UACC-257 melanoma): > 100 µM | TGI (CAKI-1 renal): > 100 µM | TGI (UO-31 renal): > 100 µM | TGI (HL-60(TB) leukemia): > 100 µM | TGI (HCT-116 colon): > 100 µM | TGI (EKVX NSCLC): > 100 µM | TGI (SR leukemia): > 100 µM | TGI (CCRF-CEM leukemia): > 100 µM | TGI (NCI-H23 lung): > 100 µM | TGI (OVCAR-5 ovarian): > 100 µM | TGI (DMS 114 small cell lung): > 100 µM | TGI (RXF-631 renal): > 100 µM | TGI (A549 NSCLC): > 100 µM | TGI (SF-295 CNS): > 100 µM | TGI (786-0 renal): > 100 µM | TGI (SNB-75 CNS): > 100 µM | TGI (NCI-H460 lung): > 100 µM | TGI (ACHN renal): > 100 µM | TGI (SN12C renal): > 100 µM | TGI (COLO 205 colon): > 100 µM | TGI (SF-268 CNS): > 100 µM | TGI (LXFL 529 NSCLC): > 100 µM | TGI (HOP-62 NSCLC): > 100 µM | TGI (SNB-19 CNS): > 100 µM | TGI (HOP-18 NSCLC): > 100 µM | TGI (TK-10 renal): > 100 µM | TGI (HT29 colon): > 100 µM | TGI (HOP-92 NSCLC): > 100 µM | TGI (SW-620 colon): > 100 µM | TGI (XF 498 CNS): > 100 µM | TGI (OVCAR-8 ovarian): > 100 µM | TGI (OVCAR-3 ovarian): > 100 µM | TGI (U251 CNS): > 100 µM | TGI (NCI-H522 lung): > 100 µM | TGI (UACC-62 melanoma): > 100 µM | TGI (OVCAR-4 ovarian): > 100 µM | TGI (RXF 393 renal): 45 µM | TGI (HCC-2998 colon): > 100 µM | TGI (SK-MEL-2 melanoma): > 100 µM | TGI (KM12 colon): > 100 µM | TGI (SK-MEL-5 melanoma): > 100 µM | TGI (HCT-15 colon): > 100 µM | TGI (DLD-1 colon): > 100 µM | TGI (MOLT-4 leukemia): > 100 µM | TGI (DMS 273 small cell lung): > 100 µM | TGI (SF-539 CNS): > 100 µM | TGI (SK-MEL-28 melanoma): > 100 µM | TGI (SNB-78 CNS): > 100 µM | TGI (MALME-3M melanoma): > 100 µM | TGI (M14 melanoma): > 100 µM | TGI (A498 renal): > 100 µM | TGI (SK-OV-3 ovarian): 62.6 µM
